Measured values: PMC10938783, “A novel pan-PI3K inhibitor KTC1101 synergizes with anti-PD-1 therapy by targeting tumor suppression and immune activation” (Molecular Cancer, 2024)

Test system: B16 cells gene expression
Assay: RNA-Seq (DEGs, GSEA, heatmaps) of B16 cells
Settings: for NES / enrichmentScore: KTC 0.2μM
[1] = B16 cells, GSEA gene set HALLMARK_ADIPOGENESIS
[2] = B16 cells, GSEA gene set HALLMARK_ALLOGRAFT_REJECTION
[3] = B16 cells, GSEA gene set HALLMARK_ANDROGEN_RESPONSE
[4] = B16 cells, GSEA gene set HALLMARK_APICAL_JUNCTION
[5] = B16 cells, GSEA gene set HALLMARK_APICAL_SURFACE
[6] = B16 cells, GSEA gene set HALLMARK_APOPTOSIS
[7] = B16 cells, GSEA gene set HALLMARK_BILE_ACID_METABOLISM
[8] = B16 cells, GSEA gene set HALLMARK_CHOLESTEROL_HOMEOSTASIS
[9] = B16 cells, GSEA gene set HALLMARK_COAGULATION
[10] = B16 cells, GSEA gene set HALLMARK_COMPLEMENT
[11] = B16 cells, GSEA gene set HALLMARK_DNA_REPAIR
[12] = B16 cells, GSEA gene set HALLMARK_E2F_TARGETS
[13] = B16 cells, GSEA gene set HALLMARK_EPITHELIAL_MESENCHYMAL_TRANSITION
[14] = B16 cells, GSEA gene set HALLMARK_ESTROGEN_RESPONSE_EARLY
[15] = B16 cells, GSEA gene set HALLMARK_ESTROGEN_RESPONSE_LATE
[16] = B16 cells, GSEA gene set HALLMARK_FATTY_ACID_METABOLISM
[17] = B16 cells, GSEA gene set HALLMARK_G2M_CHECKPOINT
[18] = B16 cells, GSEA gene set HALLMARK_GLYCOLYSIS
[19] = B16 cells, GSEA gene set HALLMARK_HEDGEHOG_SIGNALING
[20] = B16 cells, GSEA gene set HALLMARK_HEME_METABOLISM
[21] = B16 cells, GSEA gene set HALLMARK_HYPOXIA
[22] = B16 cells, GSEA gene set HALLMARK_IL2_STAT5_SIGNALING
[23] = B16 cells, GSEA gene set HALLMARK_IL6_JAK_STAT3_SIGNALING
[24] = B16 cells, GSEA gene set HALLMARK_INFLAMMATORY_RESPONSE
[25] = B16 cells, GSEA gene set HALLMARK_INTERFERON_ALPHA_RESPONSE
[26] = B16 cells, GSEA gene set HALLMARK_INTERFERON_GAMMA_RESPONSE
[27] = B16 cells, GSEA gene set HALLMARK_KRAS_SIGNALING_DN
[28] = B16 cells, GSEA gene set HALLMARK_KRAS_SIGNALING_UP
[29] = B16 cells, GSEA gene set HALLMARK_MITOTIC_SPINDLE
[30] = B16 cells, GSEA gene set HALLMARK_MTORC1_SIGNALING
[31] = B16 cells, GSEA gene set HALLMARK_MYC_TARGETS_V1
[32] = B16 cells, GSEA gene set HALLMARK_MYC_TARGETS_V2
[33] = B16 cells, GSEA gene set HALLMARK_MYOGENESIS
[34] = B16 cells, GSEA gene set HALLMARK_NOTCH_SIGNALING
[35] = B16 cells, GSEA gene set HALLMARK_OXIDATIVE_PHOSPHORYLATION
[36] = B16 cells, GSEA gene set HALLMARK_P53_PATHWAY

COc1cc(N)cc2c1nc(C(F)F)n2-c1nc(N2CCCOCC2)nc(N2CCOCC2)n1 [KTC1101, 2-(difluoromethyl)-4-methoxy-1-(4-morpholino-6-(1,4-oxazepan-4-yl)-1,3,5-triazin-2-yl)-1H-benzo[d]imidazol-6-amine]
NES, mmu05152 Tuberculosis: -0.8664 | NES, mmu05164 Influenza A: 0.7158 | NES, mmu05169 Epstein-Barr virus infection: 0.9901 | enrichmentScore, mmu05152 Tuberculosis: -0.1994 | enrichmentScore, mmu05164 Influenza A: 0.2008 | enrichmentScore, mmu05169 Epstein-Barr virus infection: 0.2613 | immune pathways TNFα signaling via NF-κB, inflammatory response, chemokine signaling, cytokine-cytokine receptor interaction, IL-2-STAT5 (GSEA) (B16 cells, 0.04 and 0.2 μM, 48 h): significantly upregulated at both tested concentrations | NES [1]: -1.91 | enrichmentScore [1]: -0.3889 | NES [2]: 1.691 | enrichmentScore [2]: 0.4865 | NES [3]: 0.8627 | enrichmentScore [3]: 0.2417 | NES [4]: 1.3836 | enrichmentScore [4]: 0.3738 | NES [5]: -2.057 | enrichmentScore [5]: -0.6354 | NES [6]: 0.9502 | enrichmentScore [6]: 0.2533 | NES [7]: -0.7889 | enrichmentScore [7]: -0.209 | NES [8]: -2.882 | enrichmentScore [8]: -0.7203 | NES [9]: 2.055 | enrichmentScore [9]: 0.594 | NES [10]: 1.839 | enrichmentScore [10]: 0.5017 | NES [11]: -0.6206 | enrichmentScore [11]: -0.1386 | NES [12]: -2.092 | enrichmentScore [12]: -0.4182 | NES [13]: 1.653 | enrichmentScore [13]: 0.443 | NES [14]: 1.194 | enrichmentScore [14]: 0.32 | NES [15]: -1.354 | enrichmentScore [15]: -0.2968 | NES [16]: -1.5293 | enrichmentScore [16]: -0.3352 | NES [17]: -1.723 | enrichmentScore [17]: -0.3452 | NES [18]: -3.021 | enrichmentScore [18]: -0.6285 | NES [19]: -1.553 | enrichmentScore [19]: -0.4866 | NES [20]: -0.8539 | enrichmentScore [20]: -0.1842 | NES [21]: -1.667 | enrichmentScore [21]: -0.3411 | NES [22]: 1.6961 | enrichmentScore [22]: 0.4531 | NES [23]: 1.437 | enrichmentScore [23]: 0.4564 | NES [24]: 1.614 | enrichmentScore [24]: 0.4471 | NES [25]: -0.8696 | enrichmentScore [25]: -0.2269 | NES [26]: 1.08 | enrichmentScore [26]: 0.2921 | NES [27]: 1.399 | enrichmentScore [27]: 0.4365 | NES [28]: 2.0673 | enrichmentScore [28]: 0.5585 | NES [29]: -1.3285 | enrichmentScore [29]: -0.2672 | NES [30]: -3.5229 | enrichmentScore [30]: -0.6921 | NES [31]: -0.8926 | enrichmentScore [31]: -0.1781 | NES [32]: -0.5144 | enrichmentScore [32]: -0.1367 | NES [33]: 1.795 | enrichmentScore [33]: 0.4818 | NES [34]: 1.2511 | enrichmentScore [34]: 0.4419 | NES [35]: -2.275 | enrichmentScore [35]: -0.46 | NES [36]: -1.372 | enrichmentScore [36]: -0.2855 | NES (B16 cells, GSEA gene set HALLMARK_PEROXISOME): -1.588
